Where two headings read alike, the source gives them in different places.
Legend:
Type in all cases: cell-based
[1] = target: T1, pERK1/2 (Thr202/Tyr204), PANC-1 (KRAS G121D) (Homo sapiens, UniProt P01116, G12D); test: Assay of intracellular pERK1/2 (Thr202/Tyr204) phosphorylation in PANC-1 cells (KRAS G12D)
T1 construct: pERK1/2 HTRF read-out
Summary of the method: (§1)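 HTRF detection of Thr202/Tyr204-phosphorylated ERK1/2 (665/615 nm ratio) in lysates from cells treated 2 days with serially 3-fold diluted compound.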

[2] = target: T2, pERK1/2 (Thr202/Tyr204), NCI-1H358 (KRAS G12C) (Homo sapiens, UniProt P01116, G12C); test: Assay of intracellular pERK1/2 (Thr202/Tyr204) phosphorylation in NCI-H358 cells (KRAS G12C)
T2 construct: pERK1/2 HTRF read-out
Summary of the method: as §1

[3] = target: T3, pERK1/2 (Thr202/Tyr204), NCI-1H441 (KRAS G12V) (Homo sapiens, UniProt P01116, G12V); test: Assay of intracellular pERK1/2 (Thr202/Tyr204) phosphorylation in NCI-H441 cells (KRAS G12V)
T3 construct: pERK1/2 HTRF read-out
Summary of the method: as §1

[4] = read-out: PANC-1 (KRAS G12D) IC50, pERK1/2, 2 days
[5] = read-out: NCI-H358 (KRAS G12C) IC50, pERK1/2, 2 days
[6] = read-out: NCI-H441 (KRAS G12V) IC50, pERK1/2, 2 days
[7] = pERK1/2, 2 days, read-out: PANC-1 (KRAS G12D) IC50
[8] = pERK1/2, 2 days, read-out: NCI-H358 (KRAS G12C) IC50
[9] = pERK1/2, 2 days, read-out: NCI-H441 (KRAS G12V) IC50

T3 sequence (P01116 1-188 isoform P01116-2 G12V): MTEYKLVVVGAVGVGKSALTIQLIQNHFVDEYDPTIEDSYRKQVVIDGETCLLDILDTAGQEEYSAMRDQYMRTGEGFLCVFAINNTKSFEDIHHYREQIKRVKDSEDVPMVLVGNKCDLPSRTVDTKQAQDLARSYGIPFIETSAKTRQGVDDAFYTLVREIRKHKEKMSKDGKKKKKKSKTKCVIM
T2 sequence (P01116 1-188 isoform P01116-2 G12C): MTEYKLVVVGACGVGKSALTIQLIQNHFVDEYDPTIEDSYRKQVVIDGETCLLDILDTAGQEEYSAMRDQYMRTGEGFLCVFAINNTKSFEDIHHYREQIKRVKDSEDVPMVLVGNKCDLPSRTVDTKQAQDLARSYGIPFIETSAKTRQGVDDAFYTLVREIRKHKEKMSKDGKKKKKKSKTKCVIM
T1 sequence (P01116 1-188 isoform P01116-2 G12D): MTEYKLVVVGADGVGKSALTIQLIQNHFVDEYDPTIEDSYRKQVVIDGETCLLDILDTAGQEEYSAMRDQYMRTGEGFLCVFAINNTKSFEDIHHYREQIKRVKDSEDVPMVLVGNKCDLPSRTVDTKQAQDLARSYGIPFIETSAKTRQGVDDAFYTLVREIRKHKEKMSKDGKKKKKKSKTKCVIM

SMILES | IC50 [1, 7] | IC50 [2, 8] | IC50 [3, 9] | IC50 [1, 4] | IC50 [2, 5] | IC50 [3, 6]
CCNC(=O)Oc1cc(-c2nc3c4c(nc(OC[C@@]56CCCN5C[C@H](F)C6)nc4c2F)N(C(C)c2cccnc2N)[C@@H](C)CO3)c2c(CC)c(F)ccc2c1 (stereo partly drawn) [Compound 294] |  |  |  | 0.5 nM | 0.8 nM | 2 nM
CNC(=O)Oc1cc(Cl)c(C2CC2)c(-c2nc3c4c(nc(OC[C@@]56CCCN5C[C@H](F)C6)nc4c2F)N(C(C)c2cccnc2N)[C@@H](C)CO3)c1 (stereo partly drawn) [Compound 295] |  |  |  | 0.5 nM | 0.4 nM | 1 nM
CCc1c(F)ccc2cc(OC(=O)NC)cc(-c3nc4c5c(nc(OC[C@@]67CCCN6C[C@H](F)C7)nc5c3F)N(C(C)c3cccnc3N)[C@@H](C)CO4)c12 (stereo partly drawn) [Compound 296] |  |  |  | 0.3 nM | 0.5 nM | 2 nM
CCc1c(F)ccc2cc(O)cc(-c3nc4c5c(nc(OC[C@@]67CCCN6C[C@H](F)C7)nc5c3F)N(C(C)c3ccccc3N)[C@@H](C)CO4)c12 (stereo partly drawn) [Compound 298] | > 100 nM | > 100 nM | > 100 nM |  |  | 
CCc1c(F)ccc2cc(O)cc(-c3nc4c5c(nc(OC[C@@]67CCCN6C[C@H](F)C7)nc5c3F)N(C(C)c3cccnc3NC(=O)[C@H](C)N)[C@@H](C)CO4)c12 (stereo partly drawn) [Compound 300] | 0.5 nM | 0.6 nM | 2 nM |  |  | 
CCc1c(F)ccc2cc(OC(=O)N(C)C)cc(-c3nc4c5c(nc(OC[C@@]67CCCN6C[C@H](F)C7)nc5c3F)N(C(C)c3cccnc3N)[C@@H](C)CO4)c12 (stereo partly drawn) [Compound 301] |  |  |  | 77 nM | 25 nM | 72 nM
C/C=C/c1cc(N)cc(-c2nc3c4c(nc(OC[C@@]56CCCN5C[C@H](F)C6)nc4c2F)N(C(C)c2cccnc2N)[C@@H](C)CO3)c1C(F)(F)F (stereo partly drawn) [Compound 302] | > 100 nM | > 100 nM | > 100 nM |  |  | 
CCc1c(F)ccc2cc(OC(=O)N3CCC3)cc(-c3nc4c5c(nc(OC[C@@]67CCCN6C[C@H](F)C7)nc5c3F)N(C(C)c3cccnc3N)[C@@H](C)CO4)c12 (stereo partly drawn) [Compound 304] |  |  |  | 55 nM | 21 nM | 46 nM
CCc1c(F)ccc2cc(OC(=O)N3CCOCC3)cc(-c3nc4c5c(nc(OC[C@@]67CCCN6C[C@H](F)C7)nc5c3F)N(C(C)c3cccnc3N)[C@@H](C)CO4)c12 (stereo partly drawn) [Compound 307] |  |  |  | 16 nM | 13 nM | 23 nM
CC(c1cccn2ccnc12)N1c2nc(OC[C@@]34CCCN3C[C@H](F)C4)nc3c(F)c(-c4cc(O)cc5ccc(F)c(F)c45)nc(c23)OC[C@@H]1C (stereo partly drawn) [Compound 310, (*)5,6-Difluoro-4-((9S)-4-fluoro-2-(((2R,7aS)-2-fluorotetrahydro-1H-pyrrolizin-7a(5H)-yl)methoxy)-10-(1-(imidazo[1,2-a]pyridin-8-yl)ethyl)-9-methyl-9,10-dihydro-8H-7-oxa-1,3,6,10-tetraazacyclohepta[de]naphthalen-5-yl)naphthalen-2-ol] |  |  |  | > 100 nM | > 100 nM | > 100 nM
CC(c1cccnc1N)N1c2nc(OC[C@@]34CCCN3C[C@H](F)C4)nc3c(F)c(-c4cc(O)cc(Cl)c4C(F)(F)F)nc(c23)OC[C@@H]1C (stereo partly drawn) [Compound 315] | 6 nM | 2 nM | 4 nM |  |  | 
CC(c1cccnc1N)N1c2nc(OC[C@@]34CCCN3C[C@H](F)C4)nc3c(F)c(-c4c(C(F)(F)F)cnc5[nH]ccc45)nc(c23)OC[C@@H]1C (stereo partly drawn) [Compound 323] | 10 nM | 0.6 nM | 2 nM |  |  | 
Cc1cc(N)nc(-c2nc3c4c(nc(OC[C@@]56CCCN5C[C@H](F)C6)nc4c2F)N(C(C)c2cccnc2N)[C@@H](C)CO3)c1C(F)(F)F (stereo partly drawn) [Compound 326, (*)6-((9S)-10-(1-(2-aminopyridin-3-yl)ethyl)-4-fluoro-2-(((2R,7aS)-2-fluorotetrahydro-1H-pyrrolizin-7a(5H)-yl)methoxy)-9-methyl-9,10-dihydro-8H-7-oxa-1,3,6,10-tetraazacyclohepta[de]naphthalen-5-yl)-4-methyl-5-(trifluoromethyl)pyridin-2-amine] | 3 nM | 1 nM | 3 nM |  |  | 
CC(c1cccnc1N)N1c2nc(OC[C@@]34CCCN3C[C@H](F)C4)nc3c(F)c(-c4ccc(F)c5sc(N)c(C(N)=O)c45)nc(c23)OC[C@@H]1C (stereo partly drawn) [Compound 327] | > 100 nM | > 100 nM | > 100 nM |  |  | 
CC(c1cccnc1N)N1c2nc(OC[C@@]34CCCN3C[C@H](F)C4)nc3c(F)c(-c4ccc(F)c5sc(N)c(C#N)c45)nc(c23)OC[C@@H]1C (stereo partly drawn) [Compound 328] | 0.8 nM | 0.5 nM | 0.8 nM |  |  | 
CC(c1cccnc1N)N1c2nc(OC[C@@]34CCCN3C[C@H](F)C4)nc3c(F)c(N4CC(O)Cc5ccccc54)nc(c23)OC[C@@H]1C (stereo partly drawn) [Compound 331] | > 100 nM | 38 nM | > 100 nM |  |  | 
CC(c1cccnc1N)N1c2nc(OC[C@@]34CCCN3C[C@H](F)C4)nc3c(F)c(-c4c(F)cc(F)c5sc(N)nc45)nc(c23)OC[C@@H]1C (stereo partly drawn) [Compound 333] | 6 nM | 1 nM | 1 nM |  |  | 

Second part, led by results:

IC50 [1, 7] | IC50 [2, 8] | IC50 [3, 9] | SMILES | IC50 [1, 4] | IC50 [2, 5] | IC50 [3, 6]
3 nM | 0.5 nM | 1 nM | CC(c1cccnc1N)N1c2nc(OC[C@@]34CCCN3C[C@H](F)C4)nc3c(F)c(-c4c(C(F)(F)F)ccc5[nH]ncc45)nc(c23)OC[C@@H]1C (stereo partly drawn) [Compound 297] |  |  | 
0.3 nM | 0.3 nM | 0.6 nM | CC(c1cccnc1N)N1c2nc(OC[C@@]34CCCN3C[C@H](F)C4)nc3c(F)c(-c4cc(N)cc(Cl)c4C4CC4)nc(c23)OC[C@@H]1C (stereo partly drawn) [Compound 305] |  |  | 
93 nM | 16 nM | 40 nM | CC(c1cccnc1N)N1c2nc(OC[C@@]34CCCN3C[C@H](F)C4)nc3c(F)c(-c4cc(N)cc(Cl)c4)nc(c23)OC[C@@H]1C (stereo partly drawn) [Compound 306] |  |  | 
6 nM | 0.5 nM | 0.8 nM | Cc1nc(N)cc(-c2nc3c4c(nc(OC[C@@]56CCCN5C[C@H](F)C6)nc4c2F)N(C(C)c2cccnc2N)[C@@H](C)CO3)c1C(F)(F)F (stereo partly drawn) [Compound 311] |  |  | 
0.3 nM | 0.3 nM | 0.4 nM | Cc1cc2[nH]ncc2c(-c2nc3c4c(nc(OC[C@@]56CCCN5C[C@H](F)C6)nc4c2F)N(C(C)c2cccnc2N)[C@@H](C)CO3)c1C(F)(F)F (stereo partly drawn) [Compound 312] |  |  | 
3 nM | 0.5 nM | 1 nM | Cc1cc2[nH]ncc2c(-c2nc3c4c(nc(OC[C@@]56CCCN5C[C@H](F)C6)nc4c2F)N(C(C)c2cccnc2N)[C@@H](C)CO3)c1Cl (stereo partly drawn) [Compound 313] |  |  | 
> 100 nM | > 100 nM | > 100 nM | Cc1cc2cn[nH]c2cc1-c1nc2c3c(nc(OC[C@@]45CCCN4C[C@H](F)C5)nc3c1F)N(C(C)c1cccnc1N)[C@@H](C)CO2 (stereo partly drawn) [Compound 314] |  |  | 
> 100 nM | > 100 nM | > 100 nM | COc1cc2cn[nH]c2cc1-c1nc2c3c(nc(OC[C@@]45CCCN4C[C@H](F)C5)nc3c1F)N(C(C)c1cccnc1N)[C@@H](C)CO2 (stereo partly drawn) [Compound 316] |  |  | 
0.3 nM | 0.4 nM | 0.8 nM | Cc1cc2[nH]ncc2c(-c2nc3c4c(nc(OC[C@@]56CCCN5C[C@H](F)C6)nc4c2F)N(C(C)c2cccnc2N)[C@@H](C)CO3)c1C1CC1 (stereo partly drawn) [Compound 317] |  |  | 
37 nM | 1 nM | 7 nM | Cc1ccc2[nH]ncc2c1-c1nc2c3c(nc(OC[C@@]45CCCN4C[C@H](F)C5)nc3c1F)N(C(C)c1cccnc1N)[C@@H](C)CO2 (stereo partly drawn) [Compound 318] |  |  | 
10 nM | 0.9 nM | 1 nM | Cc1ccc2[nH]nc(C)c2c1-c1nc2c3c(nc(OC[C@@]45CCCN4C[C@H](F)C5)nc3c1F)N(C(C)c1cccnc1N)[C@@H](C)CO2 (stereo partly drawn) [Compound 319] |  |  | 
28 nM | 0.9 nM | 4 nM | CC(c1cccnc1N)N1c2nc(OC[C@@]34CCCN3C[C@H](F)C4)nc3c(F)c(-c4ccc(F)c5sc(N)nc45)nc(c23)OC[C@@H]1C (stereo partly drawn) [Compound 320] |  |  | 
36 nM | 1 nM | 7 nM | CC(c1cccnc1N)N1c2nc(OC[C@@]34CCCN3C[C@H](F)C4)nc3c(F)c(-c4c(Cl)ccc5[nH]ncc45)nc(c23)OC[C@@H]1C (stereo partly drawn) [Compound 321] |  |  | 
> 100 nM | 21 nM | 97 nM | CC(c1cccnc1N)N1c2nc(OC[C@@]34CCCN3C[C@H](F)C4)nc3c(F)c(-c4cc(O)cc(Cl)c4C#N)nc(c23)OC[C@@H]1C (stereo partly drawn) [Compound 322] |  |  | 
> 100 nM | 28 nM | > 100 nM | Cc1c(-c2nc3c4c(nc(OC[C@@]56CCCN5C[C@H](F)C6)nc4c2F)N(C(C)c2cccnc2N)[C@@H](C)CO3)ccc2cn[nH]c12 (stereo partly drawn) [Compound 324] |  |  | 
> 100 nM | 28 nM | 44 nM | CC(c1cccnc1N)N1c2nc(OC[C@@]34CCCN3C[C@H](F)C4)nc3c(F)c(-c4cc5[nH]ncc5cc4C(F)(F)F)nc(c23)OC[C@@H]1C (stereo partly drawn) [Compound 325] |  |  | 
> 100 nM | > 100 nM | > 100 nM | Cc1cc(N)nc(-c2nc3c4c(nc(OC[C@@]56CCCN5C[C@H](F)C6)nc4c2F)N(C(C)c2cccnc2N)[C@@H](C)CO3)c1 (stereo partly drawn) [Compound 329] |  |  | 
0.3 nM | 0.4 nM | 0.9 nM | CC(c1cccnc1N)N1c2nc(OC[C@@]34CCCN3C[C@H](F)C4)nc3c(F)c(-c4c(C5CC5)c(Cl)cc5[nH]ncc45)nc(c23)OC[C@@H]1C (stereo partly drawn) [Compound 332] |  |  | 

— US20260356851A1, “TRICYCLIC COMPOUNDS AND USES THEREOF” (HUTCHMED LIMITED, priority 2023, published 2026)
